Source: ChEMBL document CHEMBL1821626, “Novel 2-thioxothiazolidin-4-one inhibitors of bacterial MurD ligase targeting D-Glu- and diphosphate-binding sites” (Eur J Med Chem, 2011)

Columns and labels:
[1] = Inhibition of Escherichia coli MurD ligase assessed as residual activity at 500 uM after 15 mins by colorimetric malachite green assay
[2] = Inhibition of Escherichia coli MurD ligase assessed as residual activity at 250 uM after 15 mins by colorimetric malachite green assay
[3] = Inhibition of Escherichia coli MurD ligase after 15 mins by colorimetric malachite green assay

| Activity [1] | Compound | further results |
| --- | --- | --- |
| 95% | N=C1NC(=O)/C(=C/c2ccc(C(=O)N[C@H](CCC(=O)O)C(=O)O)cc2)S1 |  |
|  | O=C(O)CC[C@H](NC(=O)c1cccc(/C=C2\SC(=O)NC2=O)c1)C(=O)O | Activity [2]: 96% |
|  | O=C(O)CC[C@H](NC(=O)c1ccc(/C=C2\SC(=S)NC2=O)cc1)C(=O)O | IC50 [3]: 10 µM |
|  | O=C(O)CC[C@@H](NC(=O)c1ccc(/C=C2\SC(=O)NC2=O)cc1)C(=O)O | Activity [2]: 96% |
| 67% | O=C(O)CC[C@@H](NC(=O)c1cc(/C=C2\SC(=S)NC2=O)ccc1F)C(=O)O |  |
|  | O=C(O)CC[C@@H](NC(=O)c1cccc(/C=C2\SC(=S)NC2=O)c1)C(=O)O | IC50 [3]: 89 µM |
| 97% | O=C(O)CC[C@@H](NC(=O)c1ccc(/C=C2\NC(=O)NC2=O)cc1)C(=O)O |  |
| 85% | CN1C(=O)/C(=C/c2ccc(C(=O)N[C@H](CCC(=O)O)C(=O)O)cc2)SC1=S |  |
|  | O=C(O)CC[C@@H](NC(=O)c1cccc(/C=C2\SC(=O)NC2=O)c1)C(=O)O | Activity [2]: 97% |
|  | O=C(O)CC[C@H](NC(=O)c1cccc(/C=C2\SC(=S)NC2=O)c1)C(=O)O | IC50 [3]: 172 µM |
| 91% | COC(=O)CC[C@@H](NC(=O)c1cccc(CC2SC(=S)NC2=O)c1)C(=O)OC (stereo partly specified) |  |
| 96% | O=C(O)CC[C@@H](NC(=O)c1ccc(/C=C2\SC(=S)N(CC(=O)O)C2=O)cc1)C(=O)O |  |
| 91% | O=C(O)CC[C@@H](NC(=O)c1cccc(CC2SC(=S)NC2=O)c1)C(=O)O (stereo partly specified) |  |
|  | O=C(O)CC[C@@H](NC(=O)c1ccc(/C=C2\SC(=S)NC2=O)cc1)C(=O)O | IC50 [3]: 45 µM |
|  | O=C(O)CC[C@H](NC(=O)c1ccc(/C=C2\SC(=O)NC2=O)cc1)C(=O)O | Activity [2]: 93% |
| 96% | O=C(O)CC[C@@H](NC(=O)c1ccc(CC2SC(=S)NC2=O)cc1)C(=O)O (stereo partly specified) |  |
